Results reported in patent US8980926B2, “2-aminoindole compounds and methods for the treatment of malaria” (Genzyme Corporation, priority 2009, dated 2015).
pIC50: −log10 of the molar value.

Test system: P. falciparum strain 3D7
Assay: In vitro potency against P. falciparum strain 3D7 (SYBR green/DAPI)
Assay type: cell-based
Conditions: Plasmodium falciparum, reductions in parasitemia, read-out: IC50 values

| Structure (SMILES) | pIC50 |
| --- | --- |
| CC(C)(C)c1ccc(C2(O)C(N)=Nc3ccccc32)cc1 (stereo not shown) [Compound 6] | 6.00 to 6.30 |
| CC1(O)C(N)=Nc2ccccc21 (stereo not shown) [Compound 9] | 5.30 to 6.00 |
| NC1=Nc2ccc(Cl)cc2C1(O)c1ccc(N2CCOCC2)cc1 (stereo not shown) [Compound 17] | 6.00 to 6.30 |
| NC1=Nc2ccccc2C1(O)c1ccc(N2CCOCC2)cc1 (stereo not shown) [Compound 20] | 6.00 to 6.30 |
| Cc1ccc(C2(O)C(N)=Nc3ccc(Cl)cc32)cc1 (stereo not shown) [Compound 22] | 6.00 to 6.30 |
| Cc1ccccc1C1(O)C(N)=Nc2ccccc21 (stereo not shown) [Compound 30] | 6.30 to 7.00 |
| NC1=Nc2cccc(Cl)c2C1(O)c1ccccc1 (stereo not shown) [Compound 33] | 6.30 to 7.00 |
| NC1=Nc2cc(Cl)ccc2C1(O)c1ccccc1 (stereo not shown) [Compound 34] | 6.00 to 6.30 |
| NC1=Nc2c(Cl)cccc2C1(O)c1ccccc1 (stereo not shown) [Compound 35] | 5.30 to 6.00 |
| NC1=Nc2ccc(F)cc2C1(O)c1ccccc1 (stereo not shown) [Compound 36] | 6.30 to 7.00 |
| NC1=Nc2ccc(Cl)c(Cl)c2C1(O)c1ccccc1 (stereo not shown) [Compound 40] | 6.30 to 7.00 |
| COc1ccc2c(c1)C(O)(c1ccccc1)C(N)=N2 (stereo not shown) [Compound 42] | 6.30 to 7.00 |
| COc1cc(C2(O)C(N)=Nc3ccc(Cl)cc32)c2c(ccn2C)c1 (stereo not shown) [Compound 44] | 4.82 to 5.30 |
| COc1cc(C2(O)C(N)=Nc3ccc(Cl)cc32)c2ccccc2c1 (stereo not shown) [Compound 45] | 4.82 to 5.30 |
| NC1=Nc2c(ccc(Cl)c2Cl)C1(O)c1ccccc1 (stereo not shown) [Compound 46] | 5.30 to 6.00 |
| NC1=Nc2ccc(OC(F)(F)F)cc2C1(O)c1ccccc1 (stereo not shown) [Compound 47] | 5.30 to 6.00 |
| CCCCc1ccc2c(c1)C(O)(c1ccccc1)C(N)=N2 (stereo not shown) [Compound 48] | 6.00 to 6.30 |
| NC1=Nc2ccc(Cl)cc2C1(O)c1ccccn1 (stereo not shown) [Compound 49] | 5.30 to 6.00 |
| NC1=Nc2cc(Cl)c(Cl)cc2C1(O)c1ccccc1 (stereo not shown) [Compound 51] | 6.00 to 6.30 |
| NC1=Nc2cc(Cl)cc(Cl)c2C1(O)c1ccccc1 (stereo not shown) [Compound 52] | 5.30 to 6.00 |
| CC(C)c1ccc2c(c1)C(O)(c1ccccc1)C(N)=N2 (stereo not shown) [Compound 53] | 6.00 to 6.30 |
| CC(C)CC1(O)C(N)=Nc2ccc(Cl)cc21 (stereo not shown) [Compound 54] | 6.30 to 7.00 |
| NC1=Nc2c(Cl)cc(Cl)cc2C1(O)c1ccccc1 (stereo not shown) [Compound 55] | 5.30 to 6.00 |
| COc1cc2c(cc1OC)C(O)(c1ccccc1)C(N)=N2 (stereo not shown) [Compound 56] | 6.30 to 7.00 |

| Structure (SMILES) | pIC50 |
| --- | --- |
| NC1=Nc2cc3c(cc2C1(O)c1ccccc1)OCO3 (stereo not shown) [Compound 57] | 6.30 to 7.00 |
| NC1=Nc2ccc(Cl)cc2C1(O)c1cccc2cccnc12 (stereo not shown) [Compound 58] | 6.30 to 7.00 |
| NC1=Nc2ccc(Cl)cc2C1(O)c1cccc2ncccc12 (stereo not shown) [Compound 59] | 6.30 to 7.00 |
| NC1=Nc2ccc(Cl)cc2C1(O)c1nccs1 (stereo not shown) [Compound 60] | 5.30 to 6.00 |
| COc1ccc2c(c1)C(O)(c1cc(OC)cc3ccccc13)C(N)=N2 (stereo not shown) [Compound 61] | 4.82 to 5.30 |
| NC1=Nc2ccc(O)cc2C1(O)c1ccccc1 (stereo not shown) [Compound 62] | 4.82 to 5.30 |
| COc1cc(C2(O)C(N)=Nc3ccc(C)cc32)c2ccccc2c1 (stereo not shown) [Compound 63] | 4.82 to 5.30 |
| CCOc1nc(Cl)ccc1C1(O)C(N)=Nc2ccc(C)cc21 (stereo not shown) [Compound 64] | 4.82 to 5.30 |
| NC1=Nc2ccc(OCc3ccccc3)cc2C1(O)c1ccccc1 (stereo not shown) [Compound 65] | 4.82 to 5.30 |
| NC1=Nc2ncccc2C1(O)c1ccccc1 (stereo not shown) [Compound 66] | 4.82 to 5.30 |
| NC1=Nc2ccc(Cl)cc2C1(O)c1cccc2c1oc1ccccc12 (stereo not shown) [Compound 69] | 6.30 to 7.00 |
| COc1ccc(C2(O)C(N)=Nc3ccc(Cl)cc32)cc1 (stereo not shown) [Compound 72] | 6.00 to 6.30 |
| NC1=Nc2ccc(Cl)cc2C1(O)CCc1ccccc1 (stereo not shown) [Compound 74] | 6.30 to 7.00 |
| CC(C)(C)C1(O)C(N)=Nc2ccc(Cl)cc21 (stereo not shown) [Compound 75] | 6.30 to 7.00 |
| CC(C)Oc1ccc2c(c1)C(O)(c1ccccc1)C(N)=N2 (stereo not shown) [Compound 76] | 6.30 to 7.00 |
| NC1=Nc2cc3c(cc2C1(O)c1ccccc1)OCCO3 (stereo not shown) [Compound 77] | 6.30 to 7.00 |
| NC1=Nc2ccc(Cl)cc2C1(O)c1ccncc1 (stereo not shown) [Compound 79] | 5.30 to 6.00 |
| NC1=Nc2ccc(Cl)cc2C1(O)c1cccc2cnccc12 (stereo not shown) [Compound 81] | 6.30 to 7.00 |
| NC1=Nc2ccc(Cl)cc2C1(O)c1ccc(F)cc1 (stereo not shown) [Compound 83] | 6.30 to 7.00 |
| Cc1cccc(C2(O)C(N)=Nc3ccc(Cl)cc32)c1C (stereo not shown) [Compound 84] | 6.30 to 7.00 |
| NC1=Nc2ccc(Cl)cc2C1(O)c1ccc(O)cc1 (stereo not shown) [Compound 85] | 4.82 to 5.30 |
| NC1=Nc2ccc(-c3ccccc3)cc2C1(O)c1ccccc1 (stereo not shown) [Compound 87] | 6.30 to 7.00 |
| N#Cc1ccc2c(c1)C(O)(c1ccccc1)C(N)=N2 (stereo not shown) [Compound 88] | 5.30 to 6.00 |
| NC1=Nc2ccc(Cl)cc2C1(O)c1ccccc1F (stereo not shown) [Compound 89] | 6.30 to 7.00 |

| Structure (SMILES) | pIC50 |
| --- | --- |
| Cc1ccc(C2(O)C(N)=Nc3ccc(Cl)cc32)c(C)c1 (stereo not shown) [Compound 90] | 6.30 to 7.00 |
| NC1=Nc2ccc(Cl)cc2C1(O)C1CC1 (stereo not shown) [Compound 91] | 6.30 to 7.00 |
| NC1=Nc2ccc(CCc3ccccc3)cc2C1(O)c1ccccc1 (stereo not shown) [Compound 92] | 6.30 to 7.00 |
| NC1=Nc2ccc(CCCC3CCCCC3)cc2C1(O)c1ccccc1 (stereo not shown) [Compound 93] | 6.30 to 7.00 |
| NC1=Nc2ccc(Cl)cc2C1(O)c1cccc2nsnc12 (stereo not shown) [Compound 94] | 5.30 to 6.00 |
| NC1=Nc2ccc(Cl)cc2C1(O)c1cccc(F)c1F (stereo not shown) [Compound 95] | 6.30 to 7.00 |
| NC1=Nc2ccc(Cl)cc2C1(O)c1ccc(Cl)cc1 (stereo not shown) [Compound 98] | 6.30 to 7.00 |
| NC1=Nc2ccc(-c3cccnc3)cc2C1(O)c1ccccc1 (stereo not shown) [Compound 99] | 4.82 to 5.30 |
| NC(=O)c1ccc2c(c1)C(O)(c1ccccc1)C(N)=N2 (stereo not shown) [Compound 100] | 4.82 to 5.30 |
| CS(=O)(=O)c1ccc2c(c1)C(O)(c1ccccc1)C(N)=N2 (stereo not shown) [Compound 101] | 4.82 to 5.30 |
| NC1=Nc2ccc(Cl)cc2C1(O)c1ccc(C(=O)O)cc1 (stereo not shown) [Compound 102] | 4.82 to 5.30 |
| CC(=O)Nc1ccccc1C1(O)C(N)=Nc2ccc(Cl)cc21 (stereo not shown) [Compound 103] | 4.82 to 5.30 |
| COc1ccc(C#Cc2ccc3c(c2)C(O)(c2ccccc2)C(N)=N3)cc1 (stereo not shown) [Compound 104] | 6.30 to 7.00 |
| NC1Nc2ccc(-c3nccs3)cc2C1(O)c1ccccc1 (stereo not shown) [Compound 105] | 6.30 to 7.00 |
| COc1ccc(CCc2ccc3c(c2)C(O)(c2ccccc2)C(N)=N3)cc1 (stereo not shown) [Compound 106] | 6.30 to 7.00 |
| NC1=Nc2ccc(Cl)cc2C1(O)c1cncc2ccccc12 (stereo not shown) [Compound 107] | 6.30 to 7.00 |
| NC1=Nc2ccc(Cl)cc2C1(O)c1ccnc2ccccc12 (stereo not shown) [Compound 108] | 6.30 to 7.00 |
| N#Cc1ccccc1C1(O)C(N)=Nc2ccc(Cl)cc21 (stereo not shown) [Compound 109] | 4.82 to 5.30 |
| COC(=O)c1ccc2c(c1)C(O)(c1ccccc1)C(N)=N2 (stereo not shown) [Compound 110] | 6.00 to 6.30 |
| Cc1cc(C)cc(C2(O)C(N)=Nc3ccc(Cl)cc32)c1 (stereo not shown) [Compound 112] | 6.30 to 7.00 |
| NC1=Nc2ccc(Cl)cc2C1(O)c1ccccc1Cl (stereo not shown) [Compound 113] | 6.30 to 7.00 |
| NC1=Nc2ccc(Cl)cc2C1(O)c1ccccc1-c1ccccc1Cl (stereo not shown) [Compound 114] | 6.30 to 7.00 |

Next, values leading:

| pIC50 | Structure (SMILES) |
| --- | --- |
| 6.30 to 7.00 | NC1=Nc2ccccc2C1(O)c1ccccc1 (stereo not shown) [Compound 4] |
| 6.30 to 7.00 | COc1ccc(C2(O)C(N)=Nc3ccccc32)cc1 (stereo not shown) [Compound 5] |
| 6.30 to 7.00 | COc1cccc(C2(O)C(N)=Nc3ccccc32)c1 (stereo not shown) [Compound 7] |
| 6.30 to 7.00 | NC1=Nc2ccccc2C1(O)c1ccc(C(F)(F)F)cc1 (stereo not shown) [Compound 8] |
| 7.00 to 9.00 | NC1=Nc2ccccc2C1(O)c1cccc2ccccc12 (stereo not shown) [Compound 10] |
| 7.00 to 9.00 | NC1=Nc2ccc(Cl)cc2C1(O)c1ccc(F)c2ccccc12 (stereo not shown) [Compound 12] |
| 6.30 to 7.00 | NC1=Nc2ccc(Cl)cc2C1(O)c1ccc2c(c1)OCO2 (stereo not shown) [Compound 13] |
| 6.30 to 7.00 | NC1=Nc2ccc(Cl)cc2C1(O)c1cccc(C(F)(F)F)c1 (stereo not shown) [Compound 14] |
| 6.30 to 7.00 | CN(C)c1cccc(C2(O)C(N)=Nc3ccccc32)c1 (stereo not shown) [Compound 15] |
| 6.30 to 7.00 | NC1=Nc2ccc(Cl)cc2C1(O)c1ccc(C(F)(F)F)cc1 (stereo not shown) [Compound 16] |
| 6.30 to 7.00 | CC(C)(C)c1ccc(C2(O)C(N)=Nc3ccc(Cl)cc32)cc1 (stereo not shown) [Compound 18] |
| 6.30 to 7.00 | NC1=Nc2ccccc2C1(O)c1cccc(C(F)(F)F)c1 (stereo not shown) [Compound 19] |
| 6.30 to 7.00 | CN(C)c1cccc(C2(O)C(N)=Nc3ccc(Cl)cc32)c1 (stereo not shown) [Compound 21] |
| 6.30 to 7.00 | COc1cccc(C2(O)C(N)=Nc3ccc(Cl)cc32)c1 (stereo not shown) [Compound 23] |
| 6.30 to 7.00 | NC1=Nc2ccc(Cl)cc2C1(O)c1ccc2ccccc2c1 (stereo not shown) [Compound 24] |
| 6.30 to 7.00 | NC1=Nc2ccccc2C1(O)c1ccc2ccccc2c1 (stereo not shown) [Compound 25] |
| 6.30 to 7.00 | CCCCC1(O)C(N)=Nc2ccc(Cl)cc21 (stereo not shown) [Compound 26] |

| pIC50 | Structure (SMILES) |
| --- | --- |
| 7.00 to 9.00 | CC(C)c1ccccc1C1(O)C(N)=Nc2ccc(Cl)cc21 (stereo not shown) [Compound 27] |
| 6.30 to 7.00 | NC1=Nc2ccc(Cl)cc2C1(O)c1cccc(F)c1 (stereo not shown) [Compound 28] |
| 7.00 to 9.00 | NC1=Nc2ccc(Br)cc2C1(O)c1ccccc1 (stereo not shown) [Compound 41] |
| 7.00 to 9.00 | NC1=Nc2ccc(Cl)cc2C1(O)CC1CCCCC1 (stereo not shown) [Compound 43] |
| 7.00 to 9.00 | NC1=Nc2ccc(Cl)cc2C1(O)c1cccc2c1OCC2 (stereo not shown) [Compound 67] |
| 7.00 to 9.00 | CN(C)c1ccc(C2(O)C(N)=Nc3ccc(Cl)cc32)c2ccccc12 (stereo not shown) [Compound 68] |
| 7.00 to 9.00 | COc1ccccc1C1(O)C(N)=Nc2ccc(Cl)cc21 (stereo not shown) [Compound 70] |
| 7.00 to 9.00 | Cc1ccccc1C1(O)C(N)=Nc2ccc(Cl)cc21 (stereo not shown) [Compound 71] |
| 7.00 to 9.00 | COc1cccc(C2(O)C(N)=Nc3ccc(Cl)cc32)c1OC (stereo not shown) [Compound 73] |
| 7.00 to 9.00 | COc1ccc(C2(O)C(N)=Nc3ccc(Cl)cc32)c2ccccc12 (stereo not shown) [Compound 78] |
| 7.00 to 9.00 | CN(C)c1ccccc1C1(O)C(N)=Nc2ccc(Cl)cc21 (stereo not shown) [Compound 80] |
| 7.00 to 9.00 | NC1=Nc2ccc(Cl)cc2C1(O)c1cccc2ccsc12 (stereo not shown) [Compound 82] |
| 7.00 to 9.00 | COc1ccc(C2(O)C(N)=Nc3ccc(Cl)cc32)c(OC)c1 (stereo not shown) [Compound 86] |
| 7.00 to 9.00 | NC1=Nc2ccc(Cl)cc2C1(O)c1ccccc1C(F)(F)F (stereo not shown) [Compound 96] |
| 7.00 to 9.00 | CCc1ccccc1C1(O)C(N)=Nc2ccc(Cl)cc21 (stereo not shown) [Compound 97] |
| 7.00 to 9.00 | Cn1ccc2cccc(C3(O)C(N)=Nc4ccc(Cl)cc43)c21 (stereo not shown) [Compound 111] |
